Patent publication US20260207699A1, “PHARMACEUTICAL COMPOSITION OF KAPPA OPIOID RECEPTOR AGONIST, PREPARATION METHOD THEREFOR, AND USE THEREOF” (YICHANG HUMANWELL PHARMACEUTICAL CO., LTD., priority 2022, published 2026)
Structures can show the parent of a compound that is named as a salt.

Assays:
[1] = Stability of salts of compound of formula (II), light (4500 Lux); type: physicochemical
Protocol: (§1) Samples of acetate salt, citrate salt, and phosphate salt of the compound of formula (II) were placed for investigation respectively, and the investigation conditions were high temperature test (40° C.) and light (4500 Lux). The investigation period was 5 days, 10 days and 30 days.

[2] = Stability of salts of compound of formula (II), high temperature test (40° C.); type: physicochemical; conditions: for stability at high temperature of 40° C. and under light of 4500 Lux: up to 30 days
Protocol: as §1

[3] = system: chloroquine-induced pruritus; test: Chloroquine-induced pruritus model of ICR mice; type: in vivo; conditions: 3 mg/kg subcutaneously
Protocol: (§2) Test sample: Prescription 5 of Example 9 of the present application was used as the test sample.
ICR mice, SPF grade, male, weighing 30 g-40 g, raised in a constant temperature environment, temperature (20±2) ° C., humidity 40%-70%; the raising environment was with a light rhythm 12 h:12 h (6:00-18:00), free feeding and water, and adaptive feeding for 1 week.
The mice were shaved on the back of the neck. After shaving, the animals were weighed, and the mice were randomly divided into 5 groups of 10 animals per group according to their body weight, which were the vehicle control group; ICI204448 (CAS No.: 121264-04-8, positive control drug) control group (3 mg/kg); Test group 1 (0.1 mg/kg); Test group 2 (0.5 mg/kg); and Test group 3 (1.5 mg/kg). After the corresponding drugs were administered subcutaneously according to groups, 400 μg of chloroquine, a pruritus model inducer, was intradermally injected into the shaved area of the back of the neck of mice. Following intradermal injection of chloroquine, mice were individually placed in transparent plexiglass boxes and the number of scratches over 30 min was counted.

mechanical allodynia = test: Rat postoperative analgesic model, mechanical allodynia (paw withdrawal threshold); type: in vivo, Sprague-Dawley rats; conditions: 3 mg/kg
Protocol: as §2
Sprague-Dawley rats, SPF grade, male, weighing 200 g-220 g, raised in a constant temperature environment, temperature (20±2) ° C., humidity 40%-70%; the raising environment was with a light rhythm 12 h:12 h (6:00-18:00), free feeding and water, and adaptive feeding for 1 week.
Animals were anesthetized with Zoletil (6 mg/kg)+xylazine ([…], i.p.). The toes of the animals were squeezed to confirm that the animals were fully anesthetized prior to surgery. The skin of the surgical area on the plantar site of the left hind foot was disinfected three times using iodophor and 70% ethanol. Wait until the skin was dry, to start the surgery. An incision about 1 cm long was made longitudinally toward the toe from the heel position. After incising the skin, the flexor digitorum brevis was lifted and a longitudinal blunt injury was caused. After pressing to stop bleeding, the wound was sutured. After surgery, the animals were placed on electric blankets, and returned to the cage when the animals were fully awake (free to move).
Twenty-four hours after surgery, the baseline test of mechanical allodynia was performed on rats. […] At the same time, 10 rats of the same batch were taken as the control of the normal group. Mechanical allodynia tests were performed at 0.5 h, 1 h, and 1.5 h after administration, respectively.
The rats were individually placed in a plexiglass box with a grid at the bottom to ensure that the rat feet could be tested. Rats would acclimatize for 15 minutes prior to the test. After completion of the acclimatizing, test fiber (Touch-Test Sensory Evaluator) was used to test at the central plantar site of the left hind foot of the rats. In the test, the test fiber was pressed vertically against the skin and force was applied to bend the fiber for 6-8 seconds, with 5 seconds apart between each test. In the test, an animal's rapid withdrawal of the foot was noted as a pain response.

[4] = Conventional injection, sterilization according to conventional requirements; type: physicochemical; conditions: prepared into a conventional injection
Protocol: After the cooled pharmaceutical solution is centrifuged at 3000 rpm to 10000 rpm, the precipitate is collected and detected by mass spectrometry (mass spectrometry conditions: chromatographic column: ACQUITY UPLC BEH C8, 50 mm×2.1 mm, 1.7 μm (20180306-C8-08); mobile phase A: 0.1% formic acid/water; mobile phase B: 0.1% formic acid/acetonitrile; flow rate: 0.2 ml/min; column temperature: 30° C.; detector wavelength: UV-210 nm; QDa; cone voltage: positive scan 10 volts, negative scan 5 volts; capillary voltage: plus 1.5 kV, minus 0.5 kV). Based on the detected MS values, it is speculated that the white flocculent precipitate is a degradation impurity as shown in the following formula: […]

SMILES: CC(C)C[C@@H](NC(=O)[C@@H](Cc1ccccc1)NC(=O)[C@H](N)[C@H](C)c1ccccc1)C(=O)N[C@H](CCCCN)C(=O)N1CCC(N)(C(=O)O)C1 (stereo partly drawn) [Acetate salt (1:1)]
- HPLC purity (%) ([1]; 5 days): 97.9%
- HPLC purity (%) ([1]; 10 days): 97.8%
- HPLC purity (%) ([1]; 30 days): 97.6%
- HPLC purity (%) ([2]; 0 days): 97.9%
- HPLC purity (%) ([2]; 40° C., 5 days): 97.7%
- HPLC purity (%) ([2]; 40° C., 10 days): 97.5%
- HPLC purity (%) ([2]; 40° C., 30 days): 97.1%
- stability at high temperature of 40° C. and under light of 4500 Lux [2]: better stability

SMILES: CC(C)C[C@@H](NC(=O)[C@@H](Cc1ccccc1)NC(=O)[C@H](N)[C@H](C)c1ccccc1)C(=O)N[C@H](CCCCN)C(=O)N1CCC(N)(C(=O)O)C1 (stereo partly drawn) [Citrate salt (1:1)]
- HPLC purity (%) ([1]; 5 days): 96.2%
- HPLC purity (%) ([1]; 10 days): 95.5%
- HPLC purity (%) ([1]; 30 days): 94.7%
- HPLC purity (%) ([2]; 0 days): 96.8%
- HPLC purity (%) ([2]; 40° C., 5 days): 95.7%
- HPLC purity (%) ([2]; 40° C., 10 days): 94.6%
- HPLC purity (%) ([2]; 40° C., 30 days): 93.5%
- stability at high temperature of 40° C. and under light of 4500 Lux [2]: degraded in different degrees

SMILES: CN(C(=O)Cc1ccc(Cl)c(Cl)c1)C(CN1CCCC1)c1cccc(OCC(=O)O)c1 (stereo not drawn) [ICI204448]
- Inhibition rate ([3]; scratches over 30 min): 97.4%
- Number of scratches (mean ± standard error) ([3]; scratches over 30 min after 400 μg chloroquine intradermal): 7.3 ± 2.43

SMILES: CN1CC[C@]23c4c5ccc(O)c4O[C@H]2[C@@H](O)C=C[C@H]3[C@H]1C5 [Morphine, morphine]
- Pain inhibition rate (mechanical allodynia; 0.5 hours after administration): 122.5%
- Pain inhibition rate (mechanical allodynia; 1 hours after administration): 84.2%
- Pain inhibition rate (mechanical allodynia; 1.5 hours after administration): 27.9%

SMILES: CC(C)C[C@@H](NC(=O)[C@@H](Cc1ccccc1)NC(=O)[C@H](N)[C@H](C)c1ccccc1)C(=O)N[C@H](CCCCN)C(=O)N1CCC(N)(C(=O)O)C1 (stereo partly drawn) [Phosphate salt (1:1)]
- HPLC purity (%) ([1]; 5 days): 96.2%
- HPLC purity (%) ([1]; 10 days): 95.1%
- HPLC purity (%) ([1]; 30 days): 94.2%
- HPLC purity (%) ([2]; 0 days): 96.5%
- HPLC purity (%) ([2]; 40° C., 5 days): 95.6%
- HPLC purity (%) ([2]; 40° C., 10 days): 94.3%
- HPLC purity (%) ([2]; 40° C., 30 days): 92.3%
- stability at high temperature of 40° C. and under light of 4500 Lux [2]: degraded in different degrees

SMILES: CC(C)C[C@@H](NC(=O)[C@@H](Cc1ccccc1)NC(=O)[C@H](N)[C@H](C)c1ccccc1)C(=O)N[C@H](CCCCN)C(=O)N1CCC(N)(C(=O)O)C1 (stereo partly drawn) [compound (II)]
- appearance after sterilization when cooled to room temperature [4]: a flocculent precipitate is separated out
